Measurements reported in patent US10905764B2, “Hydrated food” (Taiyokagaku Co., Ltd., priority 2005, dated 2021).

Columns and labels:
[1] = Dissolution / water solubility; conditions: in the hydrated food
mice = assay type: in vivo; conditions: oral administration of theanine by 5 g/kg
Excerpt: Theanine used in the invention has a high security. […] Furthermore, theanine is known as a principal component of deliciousness of tea and used as a food additive for use as gustatory. An amount of theanine to be added is not limited under the Food Sanitation Law.

CCNC(=O)CC[C@H](N)C(=O)O [theanine, L-theanine]
upper limit of dissolution [1]: 250 mg/mL
mortality in acute toxicity test (mice): no mice died
